Measured values from PubChem BioAssay (NCI).
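Step 1: Grow cells in 96-well plates. Step 2: Expose to compound for 48 hours at 5 concentrations. Step 3: Interpolate endpoints linearly; if unreached, use highest concentration. At the TGI there is no net growth.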

Tests used:
Assay in all cases: growth of human tumour cells (NCI), 48 h
[1] = system: 786-0 renal
[2] = system: A498 renal
[3] = system: A549 NSCLC
[4] = system: ACHN renal
[5] = system: BT-549 breast
[6] = system: CCRF-CEM leukemia
[7] = system: COLO 205 colon
[8] = system: DU-145 prostate
[9] = system: EKVX NSCLC
[10] = system: HCC-2998 colon
[11] = system: HCT-116 colon
[12] = system: HCT-15 colon
[13] = system: HL-60(TB) leukemia
[14] = system: HOP-62 NSCLC
[15] = system: HOP-92 NSCLC
[16] = system: HS 578T breast
[17] = system: HT29 colon
[18] = system: IGROV1 ovarian
[19] = system: K-562 leukemia
[20] = system: KM12 colon
[21] = system: LOX IMVI melanoma
[22] = system: M14 melanoma
[23] = system: MALME-3M melanoma
[24] = system: MCF7 breast
[25] = system: MDA-MB-231 breast
[26] = system: MDA-N
[27] = system: MOLT-4 leukemia
[28] = system: NCI-H23 lung
[29] = system: NCI-H460 lung
[30] = system: NCI-H522 lung
[31] = system: NCI/ADR-RES ovarian
[32] = system: OVCAR-3 ovarian
[33] = system: OVCAR-4 ovarian
[34] = system: OVCAR-5 ovarian
[35] = system: OVCAR-8 ovarian
[36] = system: PC-3 prostate
[37] = system: RPMI-8226 leukemia
[38] = system: RXF 393 renal
[39] = system: SF-268 CNS
[40] = system: SF-295 CNS
[41] = system: SF-539 CNS
[42] = system: SK-MEL-28 melanoma
[43] = system: SK-OV-3 ovarian
[44] = system: SN12C renal
[45] = system: SNB-19 CNS
[46] = system: SNB-75 CNS
[47] = system: SR leukemia
[48] = system: SW-620 colon
[49] = system: T-47D breast
[50] = system: TK-10 renal
[51] = system: U251 CNS
[52] = system: UACC-257 melanoma
[53] = system: UACC-62 melanoma
[54] = system: UO-31 renal
[55] = system: CAKI-1 renal
[56] = system: MDA-MB-435
[57] = system: NCI-H226 lung
[58] = system: SK-MEL-2 melanoma
[59] = system: SK-MEL-5 melanoma

O=C(/C=C/c1ccc(Cl)cc1)c1ccc(Cl)s1
TGI [1]: 90.9 µM
TGI [2]: > 100 µM
TGI [3]: > 100 µM
TGI [4]: > 100 µM
TGI [5]: 80.7 µM
TGI [6]: 83.7 µM
TGI [7]: > 100 µM
TGI [8]: > 100 µM
TGI [9]: > 100 µM
TGI [10]: 47.3 µM
TGI [11]: 22.4 µM
TGI [12]: > 100 µM
TGI [13]: > 100 µM
TGI [14]: > 100 µM
TGI [15]: > 100 µM
TGI [16]: > 100 µM
TGI [17]: > 100 µM
TGI [18]: > 100 µM
TGI [19]: > 100 µM
TGI [20]: > 100 µM
TGI [21]: 26.2 µM
TGI [22]: > 100 µM
TGI [23]: > 100 µM
TGI [24]: 44.6 µM
TGI [25]: > 100 µM
TGI [26]: 90.2 µM
TGI [27]: > 100 µM
TGI [28]: > 100 µM
TGI [29]: > 100 µM
TGI [30]: > 100 µM
TGI [31]: > 100 µM
TGI [32]: > 100 µM
TGI [33]: > 100 µM
TGI [34]: > 100 µM
TGI [35]: > 100 µM
TGI [36]: > 100 µM
TGI [37]: 80.1 µM
TGI [38]: 85.8 µM
TGI [39]: > 100 µM
TGI [40]: > 100 µM
TGI [41]: > 100 µM
TGI [42]: > 100 µM
TGI [43]: > 100 µM
TGI [44]: > 100 µM
TGI [45]: > 100 µM
TGI [46]: > 100 µM
TGI [47]: > 100 µM
TGI [48]: 55 µM
TGI [49]: > 100 µM
TGI [50]: > 100 µM
TGI [51]: > 100 µM
TGI [52]: > 100 µM
TGI [53]: 93 µM
TGI [54]: > 100 µM

CCOc1cc2c(cc1O)CC[C@@H]1[C@@H]2CC[C@]2(C)[C@@H](O)CC[C@@H]12
TGI [1]: 47.1 µM
TGI [2]: 20 µM
TGI [3]: 48.1 µM
TGI [4]: > 96.1 µM
TGI [5]: 18.3 µM
TGI [55]: 52.9 µM
TGI [6]: 11.9 µM
TGI [7]: 33.5 µM
TGI [8]: 9.15 µM
TGI [9]: 48 µM
TGI [10]: 5.51 µM
TGI [11]: 6.63 µM
TGI [12]: 27.2 µM
TGI [13]: 0.352 µM
TGI [14]: 15.1 µM
TGI [15]: 29.6 µM
TGI [16]: > 82.8 µM
TGI [17]: 17.4 µM
TGI [18]: 56.1 µM
TGI [19]: 6.24 µM
TGI [20]: 10.8 µM
TGI [21]: 21 µM
TGI [22]: 3.16 µM
TGI [23]: 50 µM
TGI [24]: 56.4 µM
TGI [25]: 6.67 µM
TGI [56]: 0.0761 µM
TGI [26]: < 0.0198 µM
TGI [27]: 11.6 µM
TGI [57]: 3.95 µM
TGI [28]: 24.9 µM
TGI [29]: 23 µM
TGI [30]: 0.0197 µM
TGI [31]: 8.98 µM
TGI [32]: 0.76 µM
TGI [33]: > 100 µM
TGI [34]: 98.2 µM
TGI [35]: 33.5 µM
TGI [36]: 40.8 µM
TGI [37]: 7.86 µM
TGI [38]: 0.816 µM
TGI [39]: 48.5 µM
TGI [40]: 5.87 µM
TGI [41]: 0.0426 µM
TGI [58]: 64.8 µM
TGI [42]: 77.5 µM
TGI [59]: 2.48 µM
TGI [43]: 77.3 µM
TGI [44]: 46.3 µM
TGI [45]: 7.13 µM
TGI [47]: 1.02 µM
TGI [48]: > 100 µM
TGI [51]: 19.3 µM
TGI [53]: 19.7 µM
TGI [54]: 63.1 µM

CCCCOc1ccc(S(=O)(=O)/N=C(\N)Nc2ccc(Cl)cc2)cc1
TGI [1]: 30.9 µM
TGI [2]: 24.6 µM
TGI [3]: 45.8 µM
TGI [4]: 27.7 µM
TGI [5]: 32.5 µM
TGI [7]: > 100 µM
TGI [8]: 34.3 µM
TGI [9]: 23.2 µM
TGI [11]: 30.3 µM
TGI [12]: 27.6 µM
TGI [14]: 44.2 µM
TGI [15]: 23.7 µM
TGI [16]: 40.2 µM
TGI [17]: 35.2 µM
TGI [18]: 28.9 µM
TGI [19]: 37.4 µM
TGI [20]: 39.6 µM
TGI [21]: 32.8 µM
TGI [22]: 38 µM
TGI [23]: 28.5 µM
TGI [24]: 26.9 µM
TGI [25]: 29.7 µM
TGI [26]: 30.4 µM
TGI [27]: 29.9 µM
TGI [57]: 44.4 µM
TGI [28]: 29.9 µM
TGI [29]: 31.5 µM
TGI [30]: 23 µM
TGI [31]: 31.5 µM
TGI [32]: 31.8 µM
TGI [33]: 26.5 µM
TGI [34]: 33.2 µM
TGI [35]: 29.9 µM
TGI [36]: 31 µM
TGI [37]: 45.8 µM
TGI [38]: 32.3 µM
TGI [39]: 29.3 µM
TGI [40]: 36.1 µM
TGI [41]: 54.9 µM
TGI [58]: 31.6 µM
TGI [42]: 32 µM
TGI [59]: 47.8 µM
TGI [43]: 35 µM
TGI [44]: 30.1 µM
TGI [45]: 33.3 µM
TGI [46]: 36.3 µM
TGI [47]: 28.7 µM
TGI [48]: 32.3 µM
TGI [49]: 29.1 µM
TGI [50]: 28.1 µM
TGI [51]: 28 µM
TGI [52]: 27.1 µM
TGI [53]: 27.1 µM
TGI [54]: 34.8 µM

CC1=C2CC(C)(C)CC(=O)C2(C)CCC1=O (configuration not stated)
TGI [1]: > 100 µM
TGI [3]: > 100 µM
TGI [4]: > 100 µM
TGI [5]: > 100 µM
TGI [55]: > 100 µM
TGI [6]: > 100 µM
TGI [7]: > 100 µM
TGI [8]: > 100 µM
TGI [9]: > 100 µM
TGI [10]: > 100 µM
TGI [11]: > 100 µM
TGI [12]: > 100 µM
TGI [13]: > 100 µM
TGI [14]: > 100 µM
TGI [16]: > 100 µM
TGI [17]: > 100 µM
TGI [18]: > 100 µM
TGI [19]: > 100 µM
TGI [20]: > 100 µM
TGI [21]: > 100 µM
TGI [22]: > 100 µM
TGI [23]: > 100 µM
TGI [24]: > 100 µM
TGI [25]: > 100 µM
TGI [26]: > 100 µM
TGI [27]: > 100 µM
TGI [57]: > 100 µM
TGI [28]: > 100 µM
TGI [29]: > 100 µM
TGI [30]: > 100 µM
TGI [31]: > 100 µM
TGI [33]: > 100 µM
TGI [34]: > 100 µM
TGI [35]: > 100 µM
TGI [36]: > 100 µM
TGI [37]: 13.8 µM
TGI [39]: > 100 µM
TGI [40]: > 100 µM
TGI [41]: > 100 µM
TGI [58]: > 100 µM
TGI [42]: > 100 µM
TGI [59]: > 100 µM
TGI [43]: > 100 µM
TGI [44]: > 100 µM
TGI [45]: > 100 µM
TGI [46]: > 100 µM
TGI [47]: > 100 µM
TGI [48]: > 100 µM
TGI [49]: > 100 µM
TGI [50]: > 100 µM
TGI [51]: > 100 µM
TGI [52]: > 100 µM
TGI [53]: > 100 µM
TGI [54]: > 100 µM
